Measurements published in patent US9808016B2, “Pesticide composition for shortening the virus lethal time” (priority 2012, dated 2017).

Columns and labels:
Spodoptera litura [1] = conditions: for synergistic effects: chemical pesticide combined with the virus, compared with the pesticide alone; for LC50: 3 days after the treatment, NPV 5.5 × 10^5 PIB/ml where combined
[2] = test system: third instar larvae of Spodoptera litura; test: Cumulative death rates of third instar larvae (FIG. 1); assay type: in vivo; conditions: Chlorantraniliprole 7.36 ppm alone
Source text: The cumulative death rates of the third instar larvae of Spodoptera litura to 10% of the registered concentration of Chlorantraniliprole (7.36 ppm), nucleopolyhedrovirus (5.5×10^5 PIB/ml) and the mixture of 10% of the registered concentration of Chlorantraniliprole+nucleopolyhedrovirus were shown in FIG. 1. It cost 11 days for the treatment of nucleopolyhedrovirus alone to achieve 100% of death rate. For the treatment of Chlorantraniliprole alone, only 80% of death rate was achieved.

Spodoptera litura [3] = test: Control rate of Spodoptera litura in Brassica oleracea crops in the field; assay type: in vivo; conditions: for Control rate One week after the first treatment / Control rate One week after the second treatment / Control rate One week after the third treatment / Control rate Two weeks after the third treatment / Control rate mean: field, NPV 10^6 PIB/mL, Chlorfluazuron 5 ppm, Chlorantraniliprole 1.47 ppm; for Control rate One week after the first treatment / Control rate One week after the second treatment / Control rate One week after the third treatment / Control rate Two weeks after the third treatment: Brassica oleracea; for Control rate mean: mean of the four assessments
Source text: Although mixing of proper pesticides can achieve synergistic effects, the mixture with current concentration for field application equals to twice the amount of pesticides used (If the viruses or pesticides are originally used individually, the mixture would be the same concentration used together). […] The content of Chlorantraniliprole used in the present invention (2% of the current registered concentration, 1.47 ppm) was 50 folds lower than the existing application technique. When mixing with Spodoptera litura nucleopolyhedrovirus, the LT50 of the third instar larvae was less than 2 days and the LT90 was only 3-4 days. […] However, when mixing the low concentration of Chlorantraniliprole with the virus, only 2% of the current registered amount of Chlorantraniliprole was mixed with the virus, 85-95% of control rate was achieved (Table 3).
The concentration of the Spodoptera litura nucleopolyhedrovirus: 10^6 PIB/mL; Chlorfluazuron was 5 ppm (20% of the current registered concentration); Chlorantraniliprole was 1.47 ppm (2% of the current registered concentration)

[4] = test system: third instar larvae of Spodoptera litura; test: Lethal time (LT50/LT90) of third instar larvae treated with nucleopolyhedrovirus and low concentration pesticides; assay type: in vivo; conditions: 1.47 ppm of Chlorantraniliprole alone
Source text: When treated with 5.5×10^5 PIB/ml of the Spodoptera litura nucleopolyhedrovirus alone, the 50% lethal time (LT50) of the third instar larvae was 9.2 days. But when treated with the formulation of the present invention, 5.5×10^5 PIB/ml of the virus and 1.47 ppm of Chlorantraniliprole, the LT50 was shortened to 1-2 days and the 90% of lethal time (LT90) was achieved by 3-4 days (see Table 1).

[5] = test system: third instar larvae of Spodoptera litura; test: Indoor experiments: death rates with seven concentrations of Chlorantraniliprole mixed with nucleopolyhedrovirus (FIG. 2); assay type: in vivo; conditions: 40 ppm of Chlorantraniliprole
Experimental: In the indoor experiments, the third instar larvae of Spodoptera litura were treated with the mixtures of seven different concentrations of Chlorantraniliprole with the nucleopolyhedrovirus. […] The synergistic effect of the mixture was more significant especially in the comparison of the low death rate caused by the low concentration of Chlorantraniliprole (see FIG. 2).

SMILES | synergistic effects (Spodoptera litura [1]) | death rate achieved [2] [%] | LC50 (Spodoptera litura [1]) [ppm] | Control rate One week after the first treatment (Spodoptera litura [3]) [%] | Control rate One week after the second treatment (Spodoptera litura [3]) [%] | Control rate One week after the third treatment (Spodoptera litura [3]) [%] | Control rate Two weeks after the third treatment (Spodoptera litura [3]) [%] | pest control effects in the field (Spodoptera litura [3]; low concentration (1.47 ppm) administered alone) | Control rate mean (Spodoptera litura [3]) [%] | pest control effect [4] | death rate [5] [%]
N#Cc1ccc(CC(=NNC(=O)Nc2ccc(OC(F)(F)F)cc2)c2cccc(C(F)(F)F)c2)cc1 (mixture of isomers) [Metaflumizone] | interfered effects | – | – | – | – | – | – | – | – | – | –
CNC(=O)c1cc(Cl)cc(C)c1NC(=O)c1cc(Br)nn1-c1ncccc1Cl [Chlorantraniliprole] | 4 folds | 80 | 1.36 | 31.6 | 22.9 | 77.3 | −5 | no pest control effects | 32 | no pest control effect | 100
CCOCn1c(-c2ccc(Cl)cc2)c(C#N)c(Br)c1C(F)(F)F [Chlorfenapyr] | – | – | 11.8 | – | – | – | – | – | – | – | –
O=C(NC(=O)c1c(F)cccc1F)Nc1cc(Cl)c(Oc2ncc(C(F)(F)F)cc2Cl)c(Cl)c1 [Chlorfluazuron] | – | – | 7.48 | −3.2 | −50.3 | 38.6 | 19.2 | – | 1.0 | – | –
